As usually defined, the EC50 is the concentration needed to bring the measured effect to its halfway point.

The assay deals with NRF2 (NQO1 activity as marker for NRF2 activation), BEAS-2B cells. Kind of assay: BEAS-2B NQO1 MTT Assay. It counts as cell-based. To be noted: Homo sapiens, EC50 of NQO1 specific activity induction, 48 hours incubation, read-out: EC50. The source says:
NAD(P)H:quinone oxidoreductase 1 (NQO1), also called DT diaphorase, is a homodimeric FAD-containing enzyme that catalyzes obligatory NAD(P)H-dependent two-electron reductions of quinones and protects cells against the toxic and neoplastic effects of free radicals and reactive oxygen species arising from one-electron reductions. The transcription of NQO1 is finely regulated by NRF2, and thus NQO1 activity is a good marker for NRF2 activation. On day one, frozen BEAS-2B cells (ATCC) are thawed in a water bath, counted, and re-suspended at a concentration of 250,000 cells/mL. Fifty microliters of cells are plated in 384 well black clear-bottomed plates. Plates are incubated at 37° C., 5% CO2 overnight. On day two, plates are centrifuged and 50 nL of compound or controls are added to the cells. Plates are then incubated at 37° C., 5% CO2 for 48 hours. On day four, medium is aspirated from the plate and crude cell lysates are made by adding 13 uL of 1× Cell Signaling Technologies lysis buffer with 1 Complete, Mini, EDTA-free Protease Inhibitor Tablet (Roche) for each 10 mL of lysis buffer. After lysis plates are incubated for 20 minutes at room temperature. Two microliters of lysate are removed for use in Cell Titer Glo assay (Promega) and MTT cocktail is prepared (Prochaska et. al. 1998) for measurement of NQO1 activity. Fifty microliters of MTT cocktail is added to each well, plate is centrifuged, and analyzed on an Envision plate reader (Perkin Elmer) using Absorbance 570 nm label for 30 minutes. Product formation is measured kinetically and the EC50 of NQO1 specific activity induction is calculated by plotting the change in absorbance (Delta OD/min) versus the log of compound concentration followed by 3-parameter fitting.
EC50s<1 nM (+++++), EC50s 1 nM-10 nM (++++), EC50s 10 nM-100 nM (+++), EC50s 100 nM-1 uM (++), EC50s 1-10 uM (+), EC50s>10 uM (−), or were not determined (ND).

On to `CC[C@@H]1CN(Cc2cc(C(CC(=O)Nc3cccnc3)c3ccc(C#N)cc3C)ccc2C)S(=O)(=O)c2cccnc2O1` (single isomer, unassigned) [Example 69], for which the EC50 lay within 100 to 1000 nM.
Under `CC[C@@H]1CN(Cc2cc([C@H](CC(=O)Nc3cccnc3)c3ccc4c(nnn4CC)c3C)ccc2C)S(=O)(=O)c2cccnc2O1` [Example 1, (S)-3-(3-(((R)-4-Ethyl-1,1-dioxido-3,4-dihydro-2H-pyrido[2,3-b][1,4,5]oxathiazepin-2-yl)methyl)-4-methylphenyl)-3-(1-ethyl-4-methyl-1H-benzo[d][1,2,3]triazol-5-yl)-N-(pyridin-3-yl)propanamide] stands 10 to 100 nM; under `CC[C@@H]1CN(Cc2cc([C@H](CC(=O)Nc3cnsc3)c3ccc4c(nnn4CC)c3C)ccc2C)S(=O)(=O)c2cccnc2O1` [Example 2, (S)-3-(3-(((R)-4-Ethyl-1,1-dioxido-3,4-dihydro-2H-pyrido[2,3-b][1,4,5]oxathiazepin-2-yl)methyl)-4-methylphenyl)-3-(1-ethyl-4-methyl-1H-benzo[d][1,2,3]triazol-5-yl)-N-(isothiazol-4-yl)propanamide], 10 to 100 nM.
On to `CC[C@@H]1CN(Cc2cc([C@H](CC(=O)NCc3ncco3)c3ccc4c(nnn4CC)c3C)ccc2C)S(=O)(=O)c2cccnc2O1` [Example 3, (S)-3-(3-(((R)-4-Ethyl-1,1-dioxido-3,4-dihydro-2H-pyrido[2,3-b][1,4,5]oxathiazepin-2-yl)methyl)-4-methylphenyl)-3-(1-ethyl-4-methyl-1H-benzo[d][1,2,3]triazol-5-yl)-N-(oxazol-2-ylmethyl)propanamide], for which the EC50 fell in the range of 100 to 1000 nM.
Under `CC[C@@H]1CN(Cc2cc([C@H](CC(=O)NC3COC3)c3ccc4c(nnn4CC)c3C)ccc2C)S(=O)(=O)c2cccnc2O1` [Example 4, (S)-3-(3-(((R)-4-Ethyl-1,1-dioxido-3,4-dihydro-2H-pyrido[2,3-b][1,4,5]oxathiazepin-2-yl)methyl)-4-methylphenyl)-3-(1-ethyl-4-methyl-1H-benzo[d][1,2,3]triazol-5-yl)-N-(oxetan-3-yl)propanamide] stands 100 to 1000 nM; under `CC[C@@H]1CN(Cc2cc([C@H](CC(=O)NC3CCS(=O)(=O)C3)c3ccc4c(nnn4CC)c3C)ccc2C)S(=O)(=O)c2cccnc2O1` (stereo partly drawn) [Example 5, (3S)-N-(1,1-Dioxidotetrahydrothiophen-3-yl)-3-(3-(((R)-4-ethyl-1,1-dioxido-3,4-dihydro-2H-pyrido[2,3-b][1,4,5]oxathiazepin-2-yl)methyl)-4-methylphenyl)-3-(1-ethyl-4-methyl-1H-benzo[d][1,2,3]triazol-5-yl)propanamide], 100 to 1000 nM.
In the case of `CC[C@@H]1CN(Cc2cc([C@H](CC(=O)n3ccc(N)n3)c3ccc4c(nnn4CC)c3C)ccc2C)S(=O)(=O)c2cccnc2O1` [Example 6, (S)-1-(3-Amino-1H-pyrazol-1-yl)-3-(3-(((R)-4-ethyl-1,1-dioxido-3,4-dihydro-2H-pyrido[2,3-b][1,4,5]oxathiazepin-2-yl)methyl)-4-methylphenyl)-3-(1-ethyl-4-methyl-1H-benzo[d][1,2,3]triazol-5-yl)propan-1-one] it was 1 to 10 nM.
As for `CC[C@@H]1CN(Cc2cc([C@H](CC(=O)n3nccc3N)c3ccc4c(nnn4CC)c3C)ccc2C)S(=O)(=O)c2cccnc2O1` [Example 7, (S)-1-(5-Amino-1H-pyrazol-1-yl)-3-(3-(((R)-4-ethyl-1,1-dioxido-3,4-dihydro-2H-pyrido[2,3-b][1,4,5]oxathiazepin-2-yl)methyl)-4-methylphenyl)-3-(1-ethyl-4-methyl-1H-benzo[d][1,2,3]triazol-5-yl)propan-1-one], the concentration for a half-maximal effect (EC50) fell in the range of 1 to 10 nM.
For `CC[C@@H]1CN(Cc2cc([C@H](CC(=O)NCc3ncc[nH]3)c3ccc4c(nnn4CC)c3C)ccc2C)S(=O)(=O)c2cccnc2O1` [Example 8, (S)-N-((1H-Imidazol-2-yl)methyl)-3-(3-(((R)-4-ethyl-1,1-dioxido-3,4-dihydro-2H-pyrido[2,3-b][1,4,5]oxathiazepin-2-yl)methyl)-4-methylphenyl)-3-(1-ethyl-4-methyl-1H-benzo[d][1,2,3]triazol-5-yl)propanamide], the concentration for a half-maximal effect (EC50) lay within 100 to 1000 nM.
